Patent US11000033B2, “Ketone or oxime compound, and herbicide” (NISSAN CHEMICAL CORPORATION, priority 2014, dated 2021)

Legend:
Type in all cases: in vivo
soybean = test: Test Example 4: effect on crop by soil treatment (symbol d); conditions: for d: soybean, effect grade on crop: 320 g/ha
In short: (§1)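 Crop seed is sown in spots together with several weed species in a box of sterilized diluvial soil. It is covered by about 1.5 cm of soil and kept in a greenhouse held between 25° C. and 30° C.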

corn = test: Test Example 4: effect on crop by soil treatment (symbol c); conditions: for c: corn, effect grade on crop: 320 g/ha
In short: as §1

Veronica persica = test: Test Example 4: herbicidal effect by soil treatment (symbol R)
In short: (§2)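 Seeds were sown in sterilized diluvial soil, covered with about 1.5 cm of soil, and the soil surface was sprayed with a water-diluted emulsion of the compound at a predetermined rate. Plants grew in a greenhouse at 25° C. to 30° C.; effects were scored visually 3 weeks after application.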

Galium spurium = test: Test Example 4: herbicidal effect by soil treatment (symbol Q)
In short: as §2

Stellaria media = test: Test Example 4: herbicidal effect by soil treatment (symbol P)
In short: as §2

beet = test: Test Example 5: effect on crop by foliage application, plastic box (symbol f); conditions: 320 g/ha, 3 weeks after application
In short: (§3)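 Diluvial soil, sterilized and boxed (21 × 13 × 7 cm), received spot-sown seed covered by about 1.5 cm soil; plants were then greenhouse-grown at 25–30° C.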

Apera spica-venti = test: Test Example 5: herbicidal effect by foliage application, plastic box (symbol L); conditions: 320 g/ha, 3 weeks after application
In short: (§4)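 Emulsion formulation, diluted with water to the intended rate, was applied uniformly to leaves by small sprayer. Recipients were 14-day greenhouse-grown seedlings (25° C. to 30° C.). Assessment followed at 3 weeks.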

Lolium multiflorum Lam. = test: Test Example 5: herbicidal effect by foliage application, plastic box (symbol K); conditions: 320 g/ha, 3 weeks after application
In short: as §4

rapeseed = test: Test Example 5: effect on crop by foliage application, plastic box (symbol g); conditions: 320 g/ha, 3 weeks after application
In short: as §3

wheat = test: Test Example 4: effect on crop by soil treatment (symbol e); conditions: for e: wheat, effect grade on crop: 320 g/ha
In short: as §1

Avena fatua = test: Test Example 5: herbicidal effect by foliage application, plastic box (symbol I); conditions: 320 g/ha, 3 weeks after application
In short: as §4

Amaranthus retroflexus = test: Test Example 5: herbicidal effect by foliage application, plastic box (symbol N); conditions: 320 g/ha, 3 weeks after application
In short: as §4

[1] = system: Echinochloa crus-galli var. crus-galli; test: Test Example 3: herbicidal effect by foliage application, Wagner pot (symbol H); conditions: application herbicide amount 320 g/ha
In short: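 Rating at 3 weeks post-spray, by defined criteria. Treatment: emulsion diluted with water to a predetermined amount, applied evenly to foliage of 14-day-old plants raised in alluvial soil flooded 0.1–0.5 cm deep at 25–30 °C, rice co-sown.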

[2] = system: Echinochloa crus-galli var. crus-galli; test: Test Example 5: herbicidal effect by foliage application, plastic box (symbol H); conditions: 320 g/ha, 3 weeks after application
In short: as §4

Scirpus juncoides = test: Test Example 2: herbicidal activity, application during weed generation in submerged conditions (symbol B); conditions: Table 23; application herbicide amount 320 g/ha; grade 0-5 by criteria of Test Example 1
In short: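 Flooded-soil post-emergence test: emulsion of compound, water-diluted to target rate, applied to paddy water surface at 1–2 leaf stage of mixed-sown weeds (alluvial soil, 4 cm water, 25–30° C. greenhouse); visual rating 3 weeks after application.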

[3] = application herbicide amount 320 g/ha

Compound: CON=C(C)CC1CC(OC(=O)N(C)c2ccccc2)=C(c2c(C)cc(C)cc2C)C1=O (stereo not drawn) [1-159]
- d: soybean, effect grade on crop (soybean): 0 (Herbicidal ratio of 5% or lower (almost no effect))
- c: corn, effect grade on crop (corn): 0 (Herbicidal ratio of 5% or lower (almost no effect))
- R: Veronica persica, herbicidal effect grade (Veronica persica; 320 g/ha): 0 (Herbicidal ratio of 5% or lower (almost no effect))
- Q: Galium spurium, herbicidal effect grade (Galium spurium; 320 g/ha): 0 (Herbicidal ratio of 5% or lower (almost no effect))
- P: Stellaria media, herbicidal effect grade (Stellaria media; 320 g/ha): 0 (Herbicidal ratio of 5% or lower (almost no effect))
- f: beet, effect on crop grade (beet): 2 (Herbicidal ratio of 20% or higher and lower than 40%)
- L: Apera spica-venti, herbicidal effect grade (Apera spica-venti): 5 (Herbicidal ratio of 90% or more (almost completely withered))
- K: Lolium multiflorum Lam., herbicidal effect grade (Lolium multiflorum Lam.): 5 (Herbicidal ratio of 90% or more (almost completely withered))
- g: rapeseed, effect on crop grade (rapeseed): 4 (Herbicidal ratio of 70% or higher and lower than 90%)
- e: wheat, effect grade on crop (wheat): 1 (Herbicidal ratio of 5% or higher and lower than 20%)
- I: Avena fatua, herbicidal effect grade (Avena fatua): 5 (Herbicidal ratio of 90% or more (almost completely withered))
- N: Amaranthus retroflexus, herbicidal effect grade (Amaranthus retroflexus): 3 (Herbicidal ratio of 40% or higher and lower than 70%)
- herbicidal effect on H (Echinochloa crus-galli var. crus-galli), grade 0-5 [1]: 4 (Herbicidal ratio of 70% or higher and lower than 90%)
- H: Echinochloa crus-galli var. crus-galli, herbicidal effect grade [2]: 4 (Herbicidal ratio of 70% or higher and lower than 90%)
- Herbicidal effect grade, B: Scirpus juncoides (Scirpus juncoides): 1 (Herbicidal ratio of 5% or higher and lower than 20%)

Compound: CON=C(C)CC1CC(OC(=O)c2c(Cl)nn(C)c2Cl)=C(c2c(C)cc(C)cc2C)C1=O (stereo not drawn) [1-160]
- d: soybean, effect grade on crop (soybean): 0 (Herbicidal ratio of 5% or lower (almost no effect))
- c: corn, effect grade on crop (corn): 0 (Herbicidal ratio of 5% or lower (almost no effect))
- R: Veronica persica, herbicidal effect grade (Veronica persica; 320 g/ha): 0 (Herbicidal ratio of 5% or lower (almost no effect))
- Q: Galium spurium, herbicidal effect grade (Galium spurium; 320 g/ha): 0 (Herbicidal ratio of 5% or lower (almost no effect))
- P: Stellaria media, herbicidal effect grade (Stellaria media; 320 g/ha): 0 (Herbicidal ratio of 5% or lower (almost no effect))
- f: beet, effect on crop grade (beet): 5 (Herbicidal ratio of 90% or more (almost completely withered))
- L: Apera spica-venti, herbicidal effect grade (Apera spica-venti): 5 (Herbicidal ratio of 90% or more (almost completely withered))
- K: Lolium multiflorum Lam., herbicidal effect grade (Lolium multiflorum Lam.): 5 (Herbicidal ratio of 90% or more (almost completely withered))
- g: rapeseed, effect on crop grade (rapeseed): 5 (Herbicidal ratio of 90% or more (almost completely withered))
- e: wheat, effect grade on crop (wheat): 2 (Herbicidal ratio of 20% or higher and lower than 40%)
- I: Avena fatua, herbicidal effect grade (Avena fatua): 5 (Herbicidal ratio of 90% or more (almost completely withered))
- N: Amaranthus retroflexus, herbicidal effect grade (Amaranthus retroflexus): 0 (Herbicidal ratio of 5% or lower (almost no effect))
- herbicidal effect on H (Echinochloa crus-galli var. crus-galli), grade 0-5 [1]: 5 (Herbicidal ratio of 90% or more (almost completely withered))
- H: Echinochloa crus-galli var. crus-galli, herbicidal effect grade [2]: 5 (Herbicidal ratio of 90% or more (almost completely withered))
- Herbicidal effect grade, B: Scirpus juncoides (Scirpus juncoides): 4 (Herbicidal ratio of 70% or higher and lower than 90%)

Compound: CON=C(C)CC1CC(OC(=O)c2ccc(S(C)(=O)=O)c(C(=O)OC)c2Cl)=C(c2c(C)cc(C)cc2C)C1=O (stereo not drawn) [1-162]
- d: soybean, effect grade on crop (soybean): 0 (Herbicidal ratio of 5% or lower (almost no effect))
- c: corn, effect grade on crop (corn): 2 (Herbicidal ratio of 20% or higher and lower than 40%)
- R: Veronica persica, herbicidal effect grade (Veronica persica; 320 g/ha): 0 (Herbicidal ratio of 5% or lower (almost no effect))
- Q: Galium spurium, herbicidal effect grade (Galium spurium; 320 g/ha): 0 (Herbicidal ratio of 5% or lower (almost no effect))
- P: Stellaria media, herbicidal effect grade (Stellaria media; 320 g/ha): 0 (Herbicidal ratio of 5% or lower (almost no effect))
- f: beet, effect on crop grade (beet): 3 (Herbicidal ratio of 40% or higher and lower than 70%)
- L: Apera spica-venti, herbicidal effect grade (Apera spica-venti): 5 (Herbicidal ratio of 90% or more (almost completely withered))
- K: Lolium multiflorum Lam., herbicidal effect grade (Lolium multiflorum Lam.): 5 (Herbicidal ratio of 90% or more (almost completely withered))
- g: rapeseed, effect on crop grade (rapeseed): 4 (Herbicidal ratio of 70% or higher and lower than 90%)
- e: wheat, effect grade on crop (wheat): 4 (Herbicidal ratio of 70% or higher and lower than 90%)
- I: Avena fatua, herbicidal effect grade (Avena fatua): 5 (Herbicidal ratio of 90% or more (almost completely withered))
- N: Amaranthus retroflexus, herbicidal effect grade (Amaranthus retroflexus): 1 (Herbicidal ratio of 5% or higher and lower than 20%)
- herbicidal effect on H (Echinochloa crus-galli var. crus-galli), grade 0-5 [1]: 5 (Herbicidal ratio of 90% or more (almost completely withered))
- H: Echinochloa crus-galli var. crus-galli, herbicidal effect grade [2]: 5 (Herbicidal ratio of 90% or more (almost completely withered))
- Herbicidal effect grade, B: Scirpus juncoides (Scirpus juncoides): 1 (Herbicidal ratio of 5% or higher and lower than 20%)

Compound: CON=C(C)CC1CC(OC(=O)C(C)Oc2ccc(Oc3ccc(Cl)cc3Cl)cc2)=C(c2c(C)cc(C)cc2C)C1=O (stereo not drawn) [1-163]
- d: soybean, effect grade on crop (soybean): 0 (Herbicidal ratio of 5% or lower (almost no effect))
- c: corn, effect grade on crop (corn): 1 (Herbicidal ratio of 5% or higher and lower than 20%)
- R: Veronica persica, herbicidal effect grade (Veronica persica; 320 g/ha): 0 (Herbicidal ratio of 5% or lower (almost no effect))
- Q: Galium spurium, herbicidal effect grade (Galium spurium; 320 g/ha): 0 (Herbicidal ratio of 5% or lower (almost no effect))
- P: Stellaria media, herbicidal effect grade (Stellaria media; 320 g/ha): 0 (Herbicidal ratio of 5% or lower (almost no effect))
- f: beet, effect on crop grade (beet): 4 (Herbicidal ratio of 70% or higher and lower than 90%)
- L: Apera spica-venti, herbicidal effect grade (Apera spica-venti): 5 (Herbicidal ratio of 90% or more (almost completely withered))
- K: Lolium multiflorum Lam., herbicidal effect grade (Lolium multiflorum Lam.): 5 (Herbicidal ratio of 90% or more (almost completely withered))
- g: rapeseed, effect on crop grade (rapeseed): 5 (Herbicidal ratio of 90% or more (almost completely withered))
- e: wheat, effect grade on crop (wheat): 0 (Herbicidal ratio of 5% or lower (almost no effect))
- I: Avena fatua, herbicidal effect grade (Avena fatua): 5 (Herbicidal ratio of 90% or more (almost completely withered))
- N: Amaranthus retroflexus, herbicidal effect grade (Amaranthus retroflexus): 3 (Herbicidal ratio of 40% or higher and lower than 70%)
- herbicidal effect on H (Echinochloa crus-galli var. crus-galli), grade 0-5 [1]: 5 (Herbicidal ratio of 90% or more (almost completely withered))
- H: Echinochloa crus-galli var. crus-galli, herbicidal effect grade [2]: 5 (Herbicidal ratio of 90% or more (almost completely withered))
- Herbicidal effect grade, B: Scirpus juncoides (Scirpus juncoides): 4 (Herbicidal ratio of 70% or higher and lower than 90%)

Compound: Cc1cc(C)c(C2=C(O)CC(CC(=O)c3ccc(F)cc3)C2=O)c(C)c1 (stereo not drawn) [2-032]
- d: soybean, effect on crop grade (soybean; [3]): 0 (Herbicidal ratio of 5% or lower (almost no effect))
- c: corn, effect on crop grade (corn; [3]): 1 (Herbicidal ratio of 5% or higher and lower than 20%)
- R: Veronica persica, herbicidal effect grade (Veronica persica; [3]): 0 (Herbicidal ratio of 5% or lower (almost no effect))
- Q: Galium spurium, herbicidal effect grade (Galium spurium; [3]): 0 (Herbicidal ratio of 5% or lower (almost no effect))
- P: Stellaria media, herbicidal effect grade (Stellaria media; [3]): 0 (Herbicidal ratio of 5% or lower (almost no effect))
- f: beet, effect on crop grade (beet): 0 (Herbicidal ratio of 5% or lower (almost no effect))
- L: Apera spica-venti, herbicidal effect grade (Apera spica-venti): 5 (Herbicidal ratio of 90% or more (almost completely withered))
- K: Lolium multiflorum Lam., herbicidal effect grade (Lolium multiflorum Lam.): 5 (Herbicidal ratio of 90% or more (almost completely withered))
- g: rapeseed, effect on crop grade (rapeseed): 4 (Herbicidal ratio of 70% or higher and lower than 90%)
- e: wheat, effect on crop grade (wheat; [3]): 0 (Herbicidal ratio of 5% or lower (almost no effect))
- I: Avena fatua, herbicidal effect grade (Avena fatua): 3 (Herbicidal ratio of 40% or higher and lower than 70%)
- N: Amaranthus retroflexus, herbicidal effect grade (Amaranthus retroflexus): 0 (Herbicidal ratio of 5% or lower (almost no effect))
- herbicidal effect on H (Echinochloa crus-galli var. crus-galli), grade 0-5 [1]: 5 (Herbicidal ratio of 90% or more (almost completely withered))
- H: Echinochloa crus-galli var. crus-galli, herbicidal effect grade [2]: 5 (Herbicidal ratio of 90% or more (almost completely withered))
- Herbicidal effect grade, B: Scirpus juncoides (Scirpus juncoides): 1 (Herbicidal ratio of 5% or higher and lower than 20%)
